What was measured:
Assay type in all cases: cell-based, murine and human
Settings in all cases: GAL4-PPAR LBD chimera
PPAR-alpha = biological target: T1, PPAR-alpha (UniProt Q07869); assay: PPAR-alpha transactivation assay (GAL4 chimera, luciferase reporter) in CV-1 cells
T1 sequence (Q07869 1-468): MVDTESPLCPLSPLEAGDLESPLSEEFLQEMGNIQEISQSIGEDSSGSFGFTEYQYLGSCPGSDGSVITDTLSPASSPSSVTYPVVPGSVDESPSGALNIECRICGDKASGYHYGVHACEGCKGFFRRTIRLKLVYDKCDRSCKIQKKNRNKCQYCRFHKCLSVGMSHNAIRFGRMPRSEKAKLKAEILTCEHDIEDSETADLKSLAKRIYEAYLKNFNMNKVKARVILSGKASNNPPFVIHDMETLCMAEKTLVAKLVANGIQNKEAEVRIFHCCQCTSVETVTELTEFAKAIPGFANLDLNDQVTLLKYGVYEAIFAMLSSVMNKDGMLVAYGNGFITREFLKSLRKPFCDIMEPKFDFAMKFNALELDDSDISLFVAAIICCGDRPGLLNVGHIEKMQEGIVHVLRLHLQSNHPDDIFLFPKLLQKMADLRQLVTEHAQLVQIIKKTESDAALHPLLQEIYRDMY
Description: (§1) Compounds may be screened for functional potency in transient transfection assays in CV-1 cells for their ability to activate the PPAR subtypes (transactivation assay). A previously established chimeric receptor system was utilized to allow comparison of the relative transcriptional activity of the receptor subtypes on the same synthetic response element and to prevent endogenous receptor activation from complicating the interpretation of results. See, for example, Lehmann, J. M.; Moore, L. B.; Smith-Oliver, T. A; Wilkinson, W. O.; Willson, T. M.; Kliewer, S. A., An antidiabetic thiazolidinedione is a high affinity ligand for peroxisome proliferator-activated receptor […], J. Biol. Chem., 1995, 270, 12953-6. The ligand binding domains for murine and human PPAR-alpha, PPAR-gamma, and PPAR-delta are each fused to the yeast transcription factor GAL4 DNA binding domain. CV-1 cells were transiently transfected with expression vectors for the respective PPAR chimera along with a reporter construct containing four or five copies of the GAL4 DNA binding site driving expression of luciferase. After 8-16 h, the cells are replated into multi-well assay plates and the media is exchanged to phenol-red free DME medium supplemented with 5% delipidated calf serum. 4 hours after replating, cells were treated with either compounds or 1% DMSO for 20-24 hours. Luciferase activity was then assayed with Britelite (Perkin Elmer) following the manufacturer's protocol and measured with either the Perkin Elmer Viewlux or Molecular Devices Acquest (see, for example, Kliewer, S. A., et. al. Cell 1995, 83, 813-819). Rosiglitazone is used as a positive control in the PPARγ assay. Wy-14643 and GW7647 are used as positive controls in the PPARα assay. GW501516 is used as the positive control in the PPARδ assay.
(§2) Compounds of Examples 1-141 were assayed to measure their biological activity with respect to their EC50 values for modulating PPAR-alpha, PPAR-gamma, and PPAR-delta as set forth in Table 1.

PPAR-delta = biological target: T2, PPAR-delta (UniProt Q03181); assay: PPAR-delta transactivation assay (GAL4 chimera, luciferase reporter) in CV-1 cells
T2 sequence (Q03181 1-441): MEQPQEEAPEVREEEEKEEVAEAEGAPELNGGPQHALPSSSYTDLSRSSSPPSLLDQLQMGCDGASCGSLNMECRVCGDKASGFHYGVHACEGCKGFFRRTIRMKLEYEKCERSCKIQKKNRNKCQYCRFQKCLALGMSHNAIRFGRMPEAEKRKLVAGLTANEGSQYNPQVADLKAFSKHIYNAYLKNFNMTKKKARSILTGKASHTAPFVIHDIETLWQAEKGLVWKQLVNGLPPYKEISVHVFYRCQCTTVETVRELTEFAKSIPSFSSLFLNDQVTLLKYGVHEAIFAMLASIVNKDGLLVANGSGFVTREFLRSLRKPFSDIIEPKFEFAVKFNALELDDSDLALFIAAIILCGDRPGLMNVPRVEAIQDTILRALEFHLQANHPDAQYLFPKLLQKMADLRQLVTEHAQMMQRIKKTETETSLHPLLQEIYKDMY
Description: as §1, §2

PPAR-gamma = biological target: T3, PPAR-gamma (UniProt P37231); assay: PPAR-gamma transactivation assay (GAL4 chimera, luciferase reporter) in CV-1 cells
T3 sequence (P37231 1-505): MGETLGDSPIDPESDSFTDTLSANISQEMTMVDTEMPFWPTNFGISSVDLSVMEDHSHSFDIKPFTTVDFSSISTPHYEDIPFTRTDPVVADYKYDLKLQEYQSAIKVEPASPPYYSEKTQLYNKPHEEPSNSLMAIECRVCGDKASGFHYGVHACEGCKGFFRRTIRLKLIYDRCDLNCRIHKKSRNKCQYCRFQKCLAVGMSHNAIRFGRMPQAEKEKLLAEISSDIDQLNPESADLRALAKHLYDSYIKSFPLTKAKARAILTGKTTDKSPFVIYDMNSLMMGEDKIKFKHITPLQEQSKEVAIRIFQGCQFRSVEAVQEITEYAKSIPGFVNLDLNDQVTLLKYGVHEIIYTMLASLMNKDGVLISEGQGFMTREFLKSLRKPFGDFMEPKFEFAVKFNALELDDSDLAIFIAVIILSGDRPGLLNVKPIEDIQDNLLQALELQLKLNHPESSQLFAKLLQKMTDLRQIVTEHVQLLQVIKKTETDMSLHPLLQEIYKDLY
Description: as §1, §2

| EC50 (PPAR-alpha) [µM] | EC50 (PPAR-delta) [µM] | EC50 (PPAR-gamma) [µM] | SMILES |
| --- | --- | --- | --- |
| 5 to 100 | < 5 | 5 to 100 | C[C@@H]1CN(c2ccc(C(F)(F)F)cn2)C[C@H](C)N1S(=O)(=O)c1ccc2c(c1)C(C(=O)O)CC2 (stereo partly drawn) [Example 27, 6-[cis-2,6-dimethyl-4-(5-trifluoromethyl-pyridin-2-yl)-piperazine-1-sulfonyl]-indan-1-carboxylic acid] |
| > 100 | < 5 | 5 to 100 | C[C@@H]1CN(c2ccc(C(F)(F)F)cn2)C[C@H](C)N1S(=O)(=O)c1ccc2c(c1)C(C)(C(=O)O)CC2 (stereo partly drawn) [Example 28, 6-[cis-2,6-dimethyl-4-(5-trifluoromethyl-pyridin-2-yl)-piperazine-1-sulfonyl]-1-methyl-indan-1-carboxylic acid] |
| 5 to 100 | 5 to 100 | 5 to 100 | COc1cc2c(cc1S(=O)(=O)N1CCN(c3ccc(C(F)(F)F)cc3)CC1)CCC2CC(=O)O (stereo not drawn) [Example 29, {6-methoxy-5-[4-(4-trifluoromethyl-phenyl)-piperazine-1-sulfonyl]-indan-1-yl}-acetic acid] |
| 5 to 100 | 5 to 100 | 5 to 100 | COc1cc2c(cc1S(=O)(=O)N1CCN(c3ccc(Cl)c(Cl)c3)CC1)CCC2CC(=O)O (stereo not drawn) [Example 30, {5-[4-(3,4-dichloro-phenyl)-piperazine-1-sulfonyl]-6-methoxy-indan-1-yl}-acetic acid] |
| > 100 | 5 to 100 | > 100 | O=C(O)Cn1ccc2cc(S(=O)(=O)N3CCN(c4ccc(C(F)(F)F)cc4)CC3)ccc21 [Example 31, {5-[4-(4-Trifluoromethyl-phenyl)-piperazine-1-sulfonyl]-indol-1-yl}-acetic acid] |
| > 100 | < 5 | 5 to 100 | O=C(O)Cn1ccc2cc(Br)c(S(=O)(=O)N3CCN(c4ccc(C(F)(F)F)cc4)CC3)cc21 [Example 32, {5-Bromo-6-[4-(4-trifluoromethyl-phenyl)-piperazine-1-sulfonyl]-indol-1-yl}-acetic acid] |
| > 100 | < 5 | 5 to 100 | O=C(O)Cn1ccc2cc(Br)c(S(=O)(=O)N3CCN(c4ccc(C(F)(F)F)cn4)CC3)cc21 [Example 33, {5-Bromo-6-[4-(5-trifluoromethyl-pyridin-2-yl)-piperazine-1-sulfonyl]-indol-1-yl}-acetic acid] |
| > 100 | < 5 | 5 to 100 | O=C(O)Cn1ccc2ccc(S(=O)(=O)N3CCN(c4ccc(C(F)(F)F)cc4)CC3)cc21 [Example 34, {6-[4-(4-Trifluoromethyl-phenyl)-piperazine-1-sulfonyl]-indol-1-yl}-acetic acid] |
| 5 to 100 | < 5 | 5 to 100 | O=C(O)Cn1ccc2ccc(S(=O)(=O)N3CCN(c4ccc(C(F)(F)F)cn4)CC3)cc21 [Example 35, {6-[4-(5-trifluoromethyl-pyridin-2-yl)-piperazine-1-sulfonyl]-indol-1-yl}-acetic acid] |
| > 100 | > 100 | 5 to 100 | COc1ccc2c(CC(=O)O)csc2c1S(=O)(=O)N1CCN(c2ccc(C(F)(F)F)cn2)CC1 [Example 36, {6-Methoxy-7-[4-(5-trifluoromethyl-pyridin-2-yl)-piperazine-1-sulfonyl]-benzo[b]thiophen-3-yl}-acetic acid] |
| 5 to 100 | < 5 | < 5 | O=C(O)Cc1csc2ccc(S(=O)(=O)N3CCN(c4ccc(C(F)(F)F)cn4)CC3)cc12 [Example 37, {5-[4-(5-Trifluoromethyl-pyridin-2-yl)piperazine-1-sulfonyl]-benzo[b]thiophen-3-yl}-acetic acid] |
| < 5 | < 5 | < 5 | CC1(C)CN(c2ccc(C(F)(F)F)cn2)CCN1S(=O)(=O)c1ccc2c(c1)C(C(=O)O)CC2 (stereo not drawn) [Example 38, 6-[2,2-Dimethyl-4-(5-trifluoromethyl-pyridin-2-yl)-piperazine-1-sulfonyl]-indan-1-carboxylic acid] |
| < 5 | < 5 | < 5 | COC(=O)[C@H]1CN(S(=O)(=O)c2ccc3c(c2)C(C(=O)O)CC3)CCN1c1ccc(C(F)(F)F)cn1 (stereo partly drawn) [Example 39, (R)-4-(3-Carboxy-indane-5-sulfonyl)-1-(5-trifluoromethyl-pyridin-2-yl)-piperazine-2-carboxylic acid methyl ester] |
| < 5 | < 5 | < 5 | COC(=O)[C@@H]1CN(S(=O)(=O)c2ccc3c(c2)C(C(=O)O)CC3)CCN1c1ccc(C(F)(F)F)cn1 (stereo partly drawn) [Example 40, (S)-4-(3-carboxy-indane-5-sulfonyl)-1-(5-trifluoromethyl-pyridin-2-yl)-piperazine-2-carboxylic acid methyl ester] |
| 5 to 100 | < 5 | 5 to 100 | O=C(O)Cc1csc2ccc(S(=O)(=O)N3CCN(c4ccc(C(F)(F)F)cc4)CC3)cc12 [Example 41, {5-[4-(4-trifluoromethyl-phenyl)-piperazine-1-sulfonyl]-benzo[b]thiophen-3-yl}-acetic acid] |
| 5 to 100 | < 5 | 5 to 100 | CC1CN(c2ccc(C(F)(F)F)cn2)CCN1S(=O)(=O)c1ccc2scc(CC(=O)O)c2c1 (stereo not drawn) [Example 42, {5-[2-methyl-4-(5-trifluoromethyl-pyridin-2-yl)-piperazine-1-sulfonyl]-benzo[b]thiophen-3-yl}-acetic acid] |
| > 100 | < 5 | 5 to 100 | C[C@@H]1CN(c2ccc(C(F)(F)F)cn2)C[C@H](C)N1S(=O)(=O)c1ccc2scc(CC(=O)O)c2c1 [Example 43, {5-[2,6-dimethyl-4-(5-trifluoromethyl-pyridin-2-yl)-piperazine 1-sulfonyl]-benzo[b]thiophen-3-yl}-acetic acid] |
| > 100 | < 5 | 5 to 100 | CC1CN(S(=O)(=O)c2ccc3scc(CC(=O)O)c3c2)C(C)CN1c1ccc(C(F)(F)F)cn1 (stereo not drawn) [Example 44, {5-[2,5-dimethyl-4-(5-trifluoromethyl-pyridin-2-yl)-piperazine-1-sulfonyl]-benzo[b]thiophen-3-yl}-acetic acid] |
| < 5 | < 5 | < 5 | O=C(O)C1CCc2ccc(S(=O)(=O)N3CCN(c4ccc(C(F)(F)F)cc4F)CC3)cc21 (stereo not drawn) [Example 45, 6-[4-(2-fluoro-4-trifluoromethyl-phenyl)-piperazine-1-sulfonyl]-indan-1-carboxylic acid] |
| < 5 | < 5 | < 5 | O=C(O)C1CCc2ccc(S(=O)(=O)N3CCN(c4ccc(Cl)c(Cl)c4)CC3)cc21 (stereo not drawn) [Example 46, 6-[4-(3,4-dichloro-phenyl)-piperazine-1-sulfonyl]-indan-1-carboxylic acid] |
